Patent publication US20240109903A1, “SUBSTITUTED HETEROCYCLES FOR TREATING CANCER” (Northwestern University, priority 2022, published 2024)
pIC50: −log10 of the molar value. Like-named read-outs stand apart in the source and are kept apart here.

Columns and labels:
[1] = test system: OVCAR-5; assay: NCI 60 five-dose screen OVCAR-5; type: cell-based; conditions: Homo sapiens; for CC50: read-out: LC50 (the source's name) (converted)
[2] = test system: HCT-116; assay: NCI 60 five-dose screen HCT-116; type: cell-based; conditions: Homo sapiens; for CC50: read-out: LC50 (the source's name) (converted)
[3] = test system: K-562; assay: NCI 60 five-dose screen K-562; type: cell-based; conditions: Homo sapiens
[4] = test system: NCI-H322M; assay: NCI 60 five-dose screen NCI-H322M; type: cell-based; conditions: Homo sapiens; for CC50: read-out: LC50 (the source's name) (converted)
[5] = test system: NCI-H226; assay: NCI 60 five-dose screen NCI-H226; type: cell-based; conditions: Homo sapiens; for CC50: read-out: LC50 (the source's name) (converted)
[6] = test system: full NCI 60 cell panel; assay: NCI 60 Cell One-dose screen; type: cell-based, human; conditions: single high dose 10^−5 M, NCI 60 panel
Excerpt: Compounds were submitted to the NCI 60 Cell screen and tested at a single high dose (10^−5 M) in the full NCI 60 cell panel (see the following reference for details of using NCI 60 human tumor cell lines for screening anticancer drugs: Shoemaker R H. The NCI60 human tumor cell line anticancer drug screen. Nature Rev Cancer 2006; 6: 813-23). The One-dose data is reported as a mean graph of the percent growth of treated cells. The number reported for the One-dose assay is growth relative to the no-drug control, and relative to the time zero number of cells. This allows detection of both growth inhibition (values between 0 and 100) and lethality (values less than 0). For example, a value of 100 means no growth inhibition. A value of 40 would mean 60% growth inhibition. A value of 0 means no net growth over the course of the experiment. A value of −40 would mean 40% lethality. A value of −100 means all cells are dead. FIGS. 1-8 show the mean graph of percent growth against the NCI-60 cell panel for NUCC-0226674, NUCC-0226679, NUCC-0226680, NUCC-0226683, NUCC-0226689, NUCC-0226694, NUCC-0226695, and NUCC-0226698.

[7] = test system: CAKI-1; assay: NCI 60 five-dose screen CAKI-1; type: cell-based; conditions: Homo sapiens; for CC50: read-out: LC50 (the source's name) (converted)
[8] = test system: HT29; assay: NCI 60 five-dose screen HT29; type: cell-based; conditions: Homo sapiens
[9] = test system: SNB-75; assay: NCI 60 five-dose screen SNB-75; type: cell-based; conditions: Homo sapiens; for CC50: read-out: LC50 (the source's name) (converted)
[10] = test system: SR; assay: NCI 60 five-dose screen SR; type: cell-based, human; conditions: for GI50 / pIC50 / CC50: Homo sapiens; for CC50: read-out: LC50 (the source's name)
[11] = test system: EKVX; assay: NCI 60 five-dose screen EKVX; type: cell-based; conditions: Homo sapiens; for CC50: read-out: LC50 (the source's name) (converted)
[12] = test system: SK-MEL-5; assay: NCI 60 five-dose screen SK-MEL-5; type: cell-based; conditions: Homo sapiens; for CC50: read-out: LC50 (the source's name) (converted)
[13] = test system: MDA-MB-231/ATCC; assay: NCI 60 five-dose screen MDA-MB-231/ATCC; type: cell-based; conditions: Homo sapiens; for CC50: read-out: LC50 (the source's name) (converted)
[14] = test system: SF-268; assay: NCI 60 five-dose screen SF-268; type: cell-based; conditions: Homo sapiens; for CC50: read-out: LC50 (the source's name) (converted)
[15] = test system: SF-295; assay: NCI 60 five-dose screen SF-295; type: cell-based; conditions: Homo sapiens; for CC50: read-out: LC50 (the source's name) (converted)
[16] = test system: HOP-62; assay: NCI 60 five-dose screen HOP-62; type: cell-based; conditions: Homo sapiens; for CC50: read-out: LC50 (the source's name) (converted)
[17] = test system: OVCAR-4; assay: NCI 60 five-dose screen OVCAR-4; type: cell-based; conditions: Homo sapiens; for CC50: read-out: LC50 (the source's name) (converted)
[18] = test system: HOP-92; assay: NCI 60 five-dose screen HOP-92; type: cell-based; conditions: Homo sapiens; for CC50: read-out: LC50 (the source's name) (converted)
[19] = test system: MV-4-11 acute myeloid leukemia cells; assay: CellTiter-Glo 2.0 cell viability, MV-4-11; type: cell-based; conditions: Homo sapiens; for IC50: MV4-11, 72 h, MV-4-11 cells, 3 days, CellTiter-Glo 2.0, read-out: IC50 (uM) [Cell Type: MV-4-11]; for pIC50: MV4-11, bound stated in text, read-out: IC50 against MV-4-11 acute myeloid leukemia cells
Protocol: 2019 October; 94(4): 1813-1823.
Cell viability was assessed using the CellTiter-Glo 2.0 assay from Promega, which yields a signal proportional to the amount of ATP present in a cell population. Compounds were first dispensed into empty 96-well flat-bottom tissue culture-treated plates (Corning) using an Echo550. MV4-1 cells were diluted to a density of 0.1 million cells per ml, pipetted onto the compounds at a density of 1,000 cells per well for U937 and 3,000 cells per well for MV4-11, mixed, and incubated for 3 days at 37° C. with 5% C02. After incubating, 5 μl of cells from each well were added to 5 μl of CellTiter-Glo 2.0 reagent in a384-well white ProxiPlate (PerkinElmer), incubated for 20 minutes at ambient temperature, and luminescence was analyzed on an EnSpire plate reader. Graphing and regression analysis was performed in Graphpad Prism.

[20] = test system: HCT-15; assay: NCI 60 five-dose screen HCT-15; type: cell-based; conditions: Homo sapiens; for CC50: read-out: LC50 (the source's name) (converted)

OC1CCC(Cn2c(C(F)(F)F)cc3c(Cl)ncnc32)CC1 (stereo not drawn) [NUCC-0226689]
GI50 ([1]; five-dose): 100 µM | pIC50 ([1]; five-dose): 4.00 | IC (TGI) ([1]; five-dose): 100 µM | CC50 ([1]; five-dose): ≥ 100 µM | GI50 ([2]; five-dose): 3.55 µM | pIC50 ([2]; five-dose): 5.38 | IC (TGI) ([2]; five-dose): 15.8 µM | CC50 ([2]; five-dose): 72.4 µM | GI50 ([3]; K562, five-dose): 2.88 µM | pIC50 ([3]; K562, five-dose): 5.45 | IC (TGI) ([3]; K562, five-dose): 100 µM | CC50 ([3]; K562, five-dose, read-out: LC50 (the source's name)): ≥ 100 µM | GI50 ([4]; five-dose): 3.8 µM | pIC50 ([4]; five-dose): 4.99 | IC (TGI) ([4]; five-dose): 13.5 µM | CC50 ([4]; five-dose): 38 µM | GI50 ([5]; five-dose): 23.4 µM | pIC50 ([5]; five-dose): 4.00 | IC (TGI) ([5]; five-dose): 79.4 µM | CC50 ([5]; five-dose): ≥ 100 µM | growth inhibition in the One-Dose Screen [6]: significant growth inhibition | GI50 ([7]; five-dose): 16.6 µM | pIC50 ([7]; five-dose): 4.48 | IC (TGI) ([7]; five-dose): 52.5 µM | CC50 ([7]; five-dose): ≥ 100 µM | GI50 ([8]; HT-29, five-dose): 15.5 µM | pIC50 ([8]; HT-29, five-dose): 4.66 | IC (TGI) ([8]; HT-29, five-dose): 100 µM | CC50 ([8]; HT-29, five-dose, read-out: LC50 (the source's name) (converted)): ≥ 100 µM | GI50 ([9]; five-dose): 10.7 µM | pIC50 ([9]; five-dose): 4.63 | IC (TGI) ([9]; five-dose): 22.9 µM | CC50 ([9]; five-dose): 49 µM | GI50 ([10]; five-dose): 2.14 µM | pIC50 ([10]; five-dose): 5.45 | CC50 ([10]; five-dose): ≥ 100 µM | TGI ([10]; five-dose): 5.17 −log[M] | GI50 ([11]; five-dose): 12.9 µM | pIC50 ([11]; five-dose): 4.53 | IC (TGI) ([11]; five-dose): 38.9 µM | CC50 ([11]; five-dose): ≥ 100 µM | GI50 ([12]; five-dose): 4.79 µM | pIC50 ([12]; five-dose): 5.08 | IC (TGI) ([12]; five-dose): 16.6 µM | CC50 ([12]; five-dose): 42.7 µM | GI50 ([13]; five-dose): 4.47 µM | pIC50 ([13]; five-dose): 4.96 | IC (TGI) ([13]; five-dose): 20 µM | CC50 ([13]; five-dose): 69.2 µM | GI50 ([14]; five-dose): 2.51 µM | pIC50 ([14]; five-dose): 5.35 | IC (TGI) ([14]; five-dose): 6.92 µM | CC50 ([14]; five-dose): 37.2 µM | GI50 ([15]; five-dose): 22.9 µM | pIC50 ([15]; five-dose): 4.41 | IC (TGI) ([15]; five-dose): 83.2 µM | CC50 ([15]; five-dose): ≥ 100 µM | GI50 ([16]; five-dose): 20 µM | pIC50 ([16]; five-dose): 4.37 | IC (TGI) ([16]; five-dose): 57.5 µM | CC50 ([16]; five-dose): ≥ 100 µM | GI50 ([17]; five-dose): 17.8 µM | pIC50 ([17]; five-dose): 4.43 | IC (TGI) ([17]; five-dose): 46.8 µM | CC50 ([17]; five-dose): ≥ 100 µM | GI50 ([18]; five-dose): 20.4 µM | pIC50 ([18]; five-dose): 4.13 | IC (TGI) ([18]; five-dose): 64.6 µM | CC50 ([18]; five-dose): ≥ 100 µM | IC50 [19]: 0.689 µM | pIC50 [19]: > 5.70 | GI50 ([20]; five-dose): 3.72 µM | pIC50 ([20]; five-dose): 5.32 | IC (TGI) ([20]; five-dose): 20 µM | CC50 ([20]; five-dose): ≥ 100 µM

COc1cc(Cn2c(C(F)(F)F)cc3c(Cl)ncnc32)ccn1 [NUCC-0226694]
GI50 [1]: 15.8 µM | pIC50 [1]: 4.53 | IC (TGI) [1]: 32.4 µM | CC50 [1]: 66.1 µM | GI50 [2]: 1.74 µM | pIC50 [2]: 5.58 | IC (TGI) [2]: 4.27 µM | CC50 [2]: 15.1 µM | GI50 ([3]; K562): 2.34 µM | pIC50 ([3]; K562): 5.57 | IC (TGI) ([3]; K562): 100 µM | CC50 ([3]; K562, read-out: LC50 (the source's name)): ≥ 100 µM | GI50 [4]: 1.7 µM | pIC50 [4]: 5.50 | IC (TGI) [4]: 3.31 µM | CC50 [4]: 6.31 µM | GI50 [5]: 15.5 µM | pIC50 [5]: 4.48 | IC (TGI) [5]: 32.4 µM | CC50 [5]: 67.6 µM | growth inhibition in the One-Dose Screen [6]: significant growth inhibition | GI50 [7]: 7.24 µM | pIC50 [7]: 4.86 | IC (TGI) [7]: 20.4 µM | CC50 [7]: 46.8 µM | GI50 ([8]; HT-29): 14.1 µM | pIC50 ([8]; HT-29): 4.66 | IC (TGI) ([8]; HT-29): 41.7 µM | CC50 ([8]; HT-29, read-out: LC50 (the source's name) (converted)): ≥ 100 µM | GI50 [9]: 1.78 µM | pIC50 [9]: 5.18 | IC (TGI) [9]: 7.24 µM | CC50 [9]: 27.5 µM | TGI [10]: 4 −log[M] | GI50 [10]: 3.63 µM | pIC50 [10]: 5.32 | CC50 [10]: ≥ 100 µM | GI50 [11]: 7.94 µM | pIC50 [11]: 4.77 | IC (TGI) [11]: 24 µM | CC50 [11]: 63.1 µM | GI50 [12]: 3.89 µM | pIC50 [12]: 5.16 | IC (TGI) [12]: 14.1 µM | CC50 [12]: 38 µM | GI50 [13]: 3.31 µM | pIC50 [13]: 5.10 | IC (TGI) [13]: 12.6 µM | CC50 [13]: 42.7 µM | GI50 [14]: 2.45 µM | pIC50 [14]: 5.34 | IC (TGI) [14]: 9.33 µM | CC50 [14]: 41.7 µM | GI50 [15]: 16.6 µM | pIC50 [15]: 4.52 | IC (TGI) [15]: 32.4 µM | CC50 [15]: 63.1 µM | GI50 [16]: 14.5 µM | pIC50 [16]: 4.56 | IC (TGI) [16]: 29.5 µM | CC50 [16]: 61.7 µM | GI50 [17]: 12 µM | pIC50 [17]: 4.64 | IC (TGI) [17]: 26.9 µM | CC50 [17]: 58.9 µM | GI50 [18]: 10.7 µM | pIC50 [18]: 4.47 | IC (TGI) [18]: 30.2 µM | CC50 [18]: 85.1 µM | IC50 [19]: 0.999 µM | pIC50 [19]: > 5.70 | GI50 [20]: 3.09 µM | pIC50 [20]: 5.42 | IC (TGI) [20]: 10 µM | CC50 [20]: 53.7 µM
